US20230346948A1, “Lipid conjugated peptide inhibitors of PICK1” (University of Copenhagen, priority 2020, published 2023)

Assay: Chemical stability in PBS for 30 days, HPLC-UV-MS
Format: physicochemical
Protocol: Stability was addressed by […] for four concentration 2, 20, 50 and 200 μM, by leaving […] in PBS at 5 and […] for 30 days followed by HPLC-UV-MS method

CCCCCCCCCCCCCC(=O)N(CCOCCOCCC(=O)N[C@@H](Cc1c[nH]cn1)C(=O)N[C@@H](Cc1c[nH]c2ccccc12)C(=O)N[C@@H](CC(C)C)C(=O)N[C@@H](CCCCN)C(=O)N[C@H](C(=O)O)C(C)C)CCOCCOCCC(=O)N[C@@H](Cc1c[nH]cn1)C(=O)N[C@@H](Cc1c[nH]c2ccccc12)C(=O)N[C@@H](CC(C)C)C(=O)N[C@@H](CCCCN)C(=O)N[C@H](C(=O)O)C(C)C [myr-NPEG4-(HWLKV)2]
Measured Conc. mPD5 (30 days @5° C, nominal 2 μM): 0.5 µM
Measured Conc. mPD5 (30 days @5° C, nominal 20 μM): 17 µM
Measured Conc. mPD5 (30 days @5° C, nominal 50 μM): 49 µM
Measured Conc. mPD5 (30 days @5° C, nominal 200 μM): 194 µM
Measured Conc. mPD5 (30 days @25° C, nominal 2 μM): 0.4 µM
Measured Conc. mPD5 (30 days @25° C, nominal 20 μM): 17 µM
Measured Conc. mPD5 (30 days @25° C, nominal 50 μM): 48 µM
Measured Conc. mPD5 (30 days @25° C, nominal 200 μM): 203 µM
chemically stable for (+5° C. and +25° C. in the vehicle compositions): at least 30 days
degradation (PBS, 30 days, +5° C. and +25° C.): No degradation was observed
purity after storage (samples with 200 and 50 μM, 30 days in PBS): > 98%
